# Measurements as given in patent US12319709B2, “Diaryl trehalose compounds and uses thereof” (THE UNIVERSITY OF MONTANA, priority 2018, dated 2025).
# Key:
# [1] = system: peripheral blood mononuclear cells (PBMCs); assay: Cytokine analysis of supernatants of stimulated, freshly prepared PBMCs; type: cell-based, human; conditions: compounds solubilized in DMSO
# Protocol: (§1) Tumor necrosis factor alpha (TNFα) and IL-6 production in peripheral blood mononuclear cells (PBMCs) was measured after exposure to various concentrations of the DAT compounds synthesized as shown above. Initial studies focused on two different methods of delivery of the DAT compounds to PBMC cultures. In the first delivery method, the indicated derivative compound was dissolved in isopropanol, serially diluted, and then dried to the bottom of a tissue culture plate. In the second delivery method, the indicated derivative compound was dissolved in DMSO and serially diluted into tissue culture media. In each method, PBMCs were added to the compounds and incubated at 37° C. TNFα (FIG. 1A) and IL-6 (FIG. 1B) were measured after 18-24 hours after treatment by ELISA assay.
# Supernatants from the freshly prepared PBMCs stimulated with DAT compounds solubilized in DMSO (Example 5A) were analyzed for the cytokines that help drive Th1 cell or Th17 cell adaptive immune responses; IFNγ, IL-12 p70, IL-6, IL-1β, and IL-23. Minimal amounts of IL-12p70 were detected and IFNγ was undetectable. Therefore, both are not reported.
# [2] = system: peripheral blood mononuclear cells (PBMCs); assay: IL-6 induction in fresh human PBMCs; type: cell-based; conditions: for IL-6 production / activity in fresh PBMCs from multiple donors (in words): compounds in DMSO serially diluted in media, supernatants 18 h after treatment; for Maximum cytokine response h-IL-6 / Minimal Effective Concentration h-IL-6: human IL-6, NR = no response
# Protocol: as §1
# The isolated PBMCs were exposed to increasing concentrations of the indicated compounds resuspended in DMSO and serially diluted in media. IL-6 levels were determined from supernatants eighteen hours after treatment (FIG. 3).
# [3] = system: RAW264.7 cells; assay: Cytokine (TNFα) response of mouse macrophage cell line; Table 2 'Murine'; type: cell-based; design: Maximum cytokine response Murine: unit not given here; conditions: NR = no response
# Protocol: Compounds were also tested in a mouse macrophage cell line (FIG. 4B). RAW264.7 cells were subjected to increasing concentrations of the compounds and assessed for production of the cytokine TNFα.
# [4] = target: T1, Mincle receptor (Mus musculus, UniProt Q9R0Q8); assay: HEK-Blue Mincle mouse reporter cells, NF-κB SEAP production; type: cell-based
# T1 construct: expressed in transfected cells; host or cells: HEK-Blue Mincle reporter cells (HEK293-derived, NF-kB SEAP reporter)
# T1 sequence (Q9R0Q8 1-214): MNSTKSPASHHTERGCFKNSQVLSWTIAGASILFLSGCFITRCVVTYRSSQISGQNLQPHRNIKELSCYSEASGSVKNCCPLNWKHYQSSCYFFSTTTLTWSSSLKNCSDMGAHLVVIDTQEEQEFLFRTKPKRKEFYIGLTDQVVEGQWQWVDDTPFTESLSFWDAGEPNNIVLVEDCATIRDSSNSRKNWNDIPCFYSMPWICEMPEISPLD
# Protocol: Compounds were also tested in the commercial reporter Hek-Blue™ cell lines. Hek-Blue™ cells were treated with increasing concentrations of the indicated compound for 18 to 24 hours. Isolated supernatants were measured for NF-κB secreted embryonic alkaline phosphatase (SEAP) production with QUANTI-Blue™ reagent (FIG. 4A). SEAP production was robust for both the mouse and human reporter lines (FIG. 4A), indicating strong signaling through the Mincle receptor in both human and murine systems.
# [5] = system: Balb/c mice; assay: i.m. immunization of Balb/c mice with M72 antigen and liposomal adjuvant; splenocyte restimulation, intracellular cytokine staining; type: in vivo, mouse; conditions: for antigen-specific CD4+ and CD8+ IL-17A producing cells (Th17 response): M72 restimulated splenocytes, TDB at highest dose
compound,measurement,setting,value
"COc1cc(OC)cc(C(=O)OC[C@H]2O[C@H](O[C@H]3O[C@H](COC(=O)c4cc(OC)cc(OC)c4)[C@@H](O)[C@H](O)[C@H]3O)[C@H](O)[C@@H](O)[C@@H]2O)c1 [UM1015, 6,6′-bis-(3,5-dimethoxybenzoate)-α,α-trehalose]",TNFα response in PBMCs (in words),[1],higher responding
same,IL-6 production / activity in fresh PBMCs from multiple donors (in words),[2],"potent, robust activity in only 3 of 5 donors"
same,Maximum cytokine response h-IL-6,[2],3.6 OD
same,Minimal Effective Concentration h-IL-6,[2],111 µM
same,Maximum cytokine response Murine,[3]; listed as 1015,3.5
same,Minimal Effective Concentration Murine,[3]; listed as 1015,12.3 µM
"CC(C)c1cc(C(=O)OC[C@H]2O[C@H](O[C@H]3O[C@H](COC(=O)c4cc(C(C)C)cc(C(C)C)c4O)[C@@H](O)[C@H](O)[C@H]3O)[C@H](O)[C@@H](O)[C@@H]2O)c(O)c(C(C)C)c1 [UM1023, 6,6′-bis-(3,5-di-iso-propylsalisate)-α,α-trehalose]",TNFα response in PBMCs (in words),[1],higher responding
same,IL-6 production / activity in fresh PBMCs from multiple donors (in words),[2],lower activity
same,Maximum cytokine response Murine,[3],2.5
same,Minimal Effective Concentration Murine,[3],0.45 µM
COc1ccc(/C=C/C(=O)OC[C@H]2O[C@H](O[C@H]3O[C@H](COC(=O)/C=C/c4ccc(OC)c(OC)c4)[C@@H](O)[C@H](O)[C@H]3O)[C@H](O)[C@@H](O)[C@@H]2O)cc1OC [UM1019],TNFα response in PBMCs (in words),[1],higher responding
same,Maximum cytokine response h-IL-6,[2],2 OD
same,Minimal Effective Concentration h-IL-6,[2],333 µM
same,Maximum cytokine response Murine,[3],2.3
same,Minimal Effective Concentration Murine,[3],111 µM
COc1cc(C)c(C(=O)OC[C@H]2O[C@H](O[C@H]3O[C@H](COC(=O)c4c(C)cc(OC)cc4OC)[C@@H](O)[C@H](O)[C@H]3O)[C@H](O)[C@@H](O)[C@@H]2O)c(OC)c1 [UM1022],TNFα response in PBMCs (in words),[1],higher responding
same,IL-6 production / activity in fresh PBMCs from multiple donors (in words),[2],"reproducibly induced potent, robust IL-6 production"
same,Maximum cytokine response h-IL-6,[2],3 OD
same,Minimal Effective Concentration h-IL-6,[2],333 µM
same,Maximum cytokine response Murine,[3],3.3
same,Minimal Effective Concentration Murine,[3],37 µM
"CC(C)(C)c1cc(C(=O)OCC2OC(OC3OC(COC(=O)c4cc(C(C)(C)C)cc(C(C)(C)C)c4O)C(O)C(O)C3O)C(O)C(O)C2O)c(O)c(C(C)(C)C)c1 (stereo not drawn) [UM1024, 6,6′-bis-(3,5-di-tert-butylsalisate)-α,α-trehalose]",TNFα response in PBMCs (in words),[1],higher responding
same,"NF-κB SEAP production, mouse reporter line","[4]; 18 to 24 hours, QUANTI-Blue",distinct very high peak at low concentration of compound
same,"potency shift in comparison with other compounds, reporter cells","[4]; HEK-Blue Mincle reporter, compared with PBMC cytokine profiles",did not display a large leftward potency shift
same,Maximum cytokine response h-IL-6,[2],3.5 OD
same,Minimal Effective Concentration h-IL-6,[2],1 µM
same,increased potency (EC50) for induction of cytokines relative to other compounds,[2]; human PBMCs,over 1000 ×
same,Maximum cytokine response Murine,[3],3
same,Minimal Effective Concentration Murine,[3],0.45 µM
same,IL-2 production compared to controls,[5]; 10 nmol group,substantially increased
same,TNFα production compared to controls,[5]; higher doses,increased compared to controls
same,antigen-specific CD4+ and CD8+ IL-17A producing cells (Th17 response),[5]; liposomal formulation,induced high levels of antigen-specific CD4+ and CD8+ IL17A producing cells
same,IL-5 production (Th2 response) in restimulated cells,"[5]; liposomal formulation, M72 vaccine",seen in restimulated cells
O=C(/C=C/c1ccc(O)c(O)c1)OC[C@H]1O[C@H](O[C@H]2O[C@H](COC(=O)/C=C/c3ccc(O)c(O)c3)[C@@H](O)[C@H](O)[C@H]2O)[C@H](O)[C@@H](O)[C@@H]1O [UM1021],TNFα response in PBMCs (in words),[1],higher responding
same,IL-6 production / activity in fresh PBMCs from multiple donors (in words),[2],induced some cytokine production
same,Maximum cytokine response h-IL-6,[2],2 OD
same,Minimal Effective Concentration h-IL-6,[2],333 µM
same,Maximum cytokine response Murine,[3],3
same,Minimal Effective Concentration Murine,[3],333 µM
COc1ccc(-c2ccc(C(=O)OC[C@H]3O[C@H](O[C@H]4O[C@H](COC(=O)c5ccc(-c6ccc(OC)cc6)cc5)[C@@H](O)[C@H](O)[C@H]4O)[C@H](O)[C@@H](O)[C@@H]3O)cc2)cc1 [UM1070],Maximum cytokine response h-IL-6,[2],3 OD
same,Minimal Effective Concentration h-IL-6,[2],33.3 µM
same,Maximum cytokine response Murine,[3],2
same,Minimal Effective Concentration Murine,[3],100 µM
"CCCCCCCCCCCCCCCCCCCCCC(=O)OC[C@H]1O[C@H](O[C@H]2O[C@H](COC(=O)CCCCCCCCCCCCCCCCCCCCC)[C@@H](O)[C@H](O)[C@H]2O)[C@H](O)[C@@H](O)[C@@H]1O [TDB, trehalose dibehenate, reference compound]",antigen-specific CD4+ and CD8+ IL-17A producing cells (Th17 response),[5]; liposomal formulation,induced some IL-17A
Cc1cc(C)cc(C(=O)OCC2OC(OC3OC(COC(=O)c4cc(C)cc(C)c4)C(O)C(O)C3O)C(O)C(O)C2O)c1 (stereo not shown) [UM1016],Maximum cytokine response h-IL-6,[2],1.5 OD
same,Minimal Effective Concentration h-IL-6,[2],1000 µM
same,Maximum cytokine response Murine,[3],3
same,Minimal Effective Concentration Murine,[3],4.1 µM
CCCCCCCCCCOc1cc(OCCCCCCCCCC)cc(C(=O)OC[C@H]2O[C@H](O[C@H]3O[C@H](COC(=O)c4cc(OCCCCCCCCCC)cc(OCCCCCCCCCC)c4)[C@@H](O)[C@H](O)[C@H]3O)[C@H](O)[C@@H](O)[C@@H]2O)c1 [UM1094],Maximum cytokine response h-IL-6,[2],3.4 OD
same,Minimal Effective Concentration h-IL-6,[2],1.2 µM
same,Maximum cytokine response Murine,[3],<.001
same,Minimal Effective Concentration Murine,[3],3.4 µM
CCOc1cc(C(=O)OCC2OC(OC3OC(COC(=O)c4cc(OCC)c(OCC)c(OCC)c4)C(O)C(O)C3O)C(O)C(O)C2O)cc(OCC)c1OCC (stereo not shown) [UM1049],Maximum cytokine response h-IL-6,[2],3.3 OD
same,Minimal Effective Concentration h-IL-6,[2],2 µM
same,Maximum cytokine response Murine,[3],1.3
same,Minimal Effective Concentration Murine,[3],0.13 µM
O=C(OC[C@H]1O[C@H](O[C@H]2O[C@H](COC(=O)c3ccc(-c4ccccc4)cc3O)[C@@H](O)[C@H](O)[C@H]2O)[C@H](O)[C@@H](O)[C@@H]1O)c1ccc(-c2ccccc2)cc1O [UM1062],Maximum cytokine response h-IL-6,[2],3 OD
same,Minimal Effective Concentration h-IL-6,[2],100 µM
same,Maximum cytokine response Murine,[3],3
same,Minimal Effective Concentration Murine,[3],100 µM
COc1cc(/C=C/C(=O)OC[C@H]2O[C@H](O[C@H]3O[C@H](COC(=O)/C=C/c4cc(OC)c(OC)c(OC)c4)[C@@H](O)[C@H](O)[C@H]3O)[C@H](O)[C@@H](O)[C@@H]2O)cc(OC)c1OC [UM1020],TNFα response in PBMCs (in words),[1],higher responding
same,Maximum cytokine response h-IL-6,[2],1.5 OD
same,Minimal Effective Concentration h-IL-6,[2],333 µM
same,Maximum cytokine response Murine,[3],3.2
same,Minimal Effective Concentration Murine,[3],33.3 µM
CC(C)(C)c1cc(C(=O)OC[C@H]2O[C@H](O[C@H]3O[C@H](COC(=O)c4cc(C(C)(C)C)c(O)c(C(C)(C)C)c4)[C@@H](O)[C@H](O)[C@H]3O)[C@H](O)[C@@H](O)[C@@H]2O)cc(C(C)(C)C)c1O [UM1087],Maximum cytokine response h-IL-6,[2],3 OD
same,Minimal Effective Concentration h-IL-6,[2],33.3 µM
same,Maximum cytokine response Murine,[3],3
same,Minimal Effective Concentration Murine,[3],0.13 µM
CCCCCOc1cc(OCCCCC)cc(C(=O)OC[C@H]2O[C@H](O[C@H]3O[C@H](COC(=O)c4cc(OCCCCC)cc(OCCCCC)c4)[C@@H](O)[C@H](O)[C@H]3O)[C@H](O)[C@@H](O)[C@@H]2O)c1 [UM1052],Maximum cytokine response h-IL-6,[2],3.3 OD
same,Minimal Effective Concentration h-IL-6,[2],0.08 µM
same,Maximum cytokine response Murine,[3],1.3
same,Minimal Effective Concentration Murine,[3],0.13 µM
